These are literature values, as cited in patent US20050129764A1, “Osmotic device containing licofelone” (priority 2003, published 2005).

The conditions of data set [1]: single dose (800-3,200) mg, volunteers.
Data set [2] has as its system osteoarthritis of the knee. As to conditions: phase III.
For data set [3] the following is noted: 200 mg dose administered twice daily.

Molecules are shown by their SMILES.

`CC1(C)Cc2c(-c3ccccc3)c(-c3ccc(Cl)cc3)c(CC(=O)O)n2C1` [licofelone]: the “activity in animal experiments” value is “antiphlogistic, analgesic, antipyretic, antiasthmatic and antiaggregative activity”. For the same molecule, the “gastrointestinal damage at active dosage” value (animal experiments) was “no gastrointestinal damage”. The tolerability entry in data set [1] is “generally well tolerated”. In addition, the “improvement in efficacy parameters” value in data set [2] (licofelone 400 mg/day bid) was “greatest improvement in efficacy parameters”. The “efficacy in long-term treatment of osteoarthritis of the knee vs naproxen” value in data set [2] (n=704, licofelone 200 and 400 mg/day bid, naproxen 1000 mg/day bid) is listed as “at least as effective as naproxen”. In data set [3], the “elimination half-life (T1/2β)” value was 8.7 to 11.1 h, the “peak plasma licofelone concentrations” value is 1650 to 1750 ng/mL and the “time post-dose at which peak plasma concentrations were reached” value was 0.74 to 4 h.
